From publication PMC11363342 (ACS Central Science, 2024)

What was measured:
SARS-CoV-2 [1] = assay: microbe, parasite or virus in culture; type: cell-based; details: Severe acute respiratory syndrome coronavirus 2, Vero C1008, Vero E6 cells, SARS-CoV-2/Leiden0002, n = 3, mean ± SEM; read-out: EC50 (μM), SARS-CoV-2 CPE reduction
[2] = system: recombinant Mus musculus α-Glu II; assay: Thermal shift assay (SYPRO orange); type: binding; details: 10 μM Mmα-Glu-II with 50 μM inhibitor; unliganded control 49.9 °C
SARS-CoV = type: cell-based; details: Vero E6, MOI 1, 16 hpi, increasing concentrations
MERS-CoV = type: cell-based; details: HuH-7, MOI 1, 16 hpi, increasing concentrations
HCoV-229E = type: cell-based
SARS-CoV-2 [3] = assay: Viral load reduction assay in ALI-PBEC; type: cell-based; details: ALI-PBEC
Method: Thus, ALI-PBEC cells were infected with SARS-CoV-2 (10^5 PFU per insert; estimated MOI ∼0.1) and treated with compounds on the apical side of the cells for 2 h. For uninfected controls, PBS was used instead of virus. The compounds were also present in the basal medium during the whole experiment until 48 hpi, when samples were harvested. […] (Figure 4D).
ALI-PBEC were pretreated with compound in the basal medium for 3 h. Cells were infected with 100 000 PFU of SARS-CoV-2/Leiden0008 per insert (estimated MOI 0.1) with compounds present in the inoculum. After 2 h at 37 °C on a rocking platform, the inoculum was removed and cells were washed three times with warm PBS. Compounds stayed present in the basal medium until 48 h postinfection. At 48 hpi the viral load was determined by plaque assay on a 200 μL apical wash (PBS incubated on the apical side of the insets for 10 min at 37 °C). For assessing cytotoxicity with the CyQuant LDH cytotoxicity assay (Thermo Fisher Scientific), 10 μL of apical wash was diluted 5 times with 40 μL of PBS. A 25 μL volume of this dilution was added to 25 μL of assay reagent and incubated for 30 min at RT in the dark. The plate was fixed and measured at a wavelength of 490 nm (Envision reader, PerkinElmer). For the activity-based probe labeling, the insets were washed one more time with PBS and processed as described previously.[52] Briefly, cells were lysed with 60 μL of potassium phosphate buffer per insert. A fluorescently labeled probe (JJB383) was diluted in MclIvaine buffer (pH 7) to a 10 μM stock and incubated for 5 min on ice. For labeling of the cell lysate, 10 μL of lysate was added to 10 μL of MclIvaine buffer and 5 μL of probe. The lysate was incubated for 30 min at 37 °C before the addition of 10 μL of Laemmli sample buffer (4×). Samples were heated at 95 °C for 5 min and separated in a 10% SDS-PAGE gel. Fluorescence was measured at a wavelength of 625 nm (Cy5) with a Uvitec Alliance Q9 imager (BioSPX). After imaging, the gels were stained with GelCode Blue stain reagent (Thermo Fisher Scientific) and visualized using a Uvitec Essential V6 system to check for equal loading.

ER α-Glu II (GANAB) = assay: Competitive activity-based protein profiling with ABP 29 in ALI-PBEC lysate, GANAB; type: cell-based, human
SARS-CoV-2 S protein = type: cell-based

Compound: O=S1(=O)O[C@@H]2[C@H](O)[C@@H](O)[C@H](O)[C@@H](CO)[C@@H]2O1 [Compound 11, 1,6-epi-cyclophellitol cyclosulfate]
- EC50 (SARS-CoV-2 [1]): 0.48 ± 0.1 µM
- Tm/°C [2]: 63.3 °C
- infectious progeny of SARS-CoV (in words) (SARS-CoV): significant reduction of infectious progeny
- infectious progeny of MERS-CoV (in words) (MERS-CoV): significant reduction of infectious progeny
- virus infectivity of HCoV-229E (in words) (HCoV-229E): did not show any reduction in virus infectivity
- concentration at which the maximum antiviral effect was reached (SARS-CoV-2 [3]): 0.5 µM
- reduction of viral load vs untreated control (SARS-CoV-2 [3]; 0.5 μM, 48 hpi): up to 100 fold
- reduction of infectious virus titers (SARS-CoV-2 [3]; 0.5–1.6 μM): up to 2 logs
- ER α-Glu II inhibition in ALI-PBEC (in words) (ER α-Glu II (GANAB); 0.5 μM): almost full inhibition
- in cellulo ER α-Glu II inhibition by ABP 29 labeling (in words) (ER α-Glu II (GANAB); pH 7): most efficient in inhibiting ER α-Glu II and GAA at low concentrations
- (processed) S2 in the medium (SARS-CoV-2 S protein): strongly reduced
- full-length S protein in the cell lysate (SARS-CoV-2 S protein): minor reduction
- ∼90 kDa S2 fragment in the cell lysate (SARS-CoV-2 S protein): almost complete disappearance
